US20260132128A1, “COMPOUND FOR RECOVERING P53 MUTATION FUNCTION AND USE THEREOF” (SHENZHEN ZHONGGE BIOLOGICAL TECHNOLOGY CO., LTD., priority 2022, published 2026)

Assays:
[1] = Caco-2 cell permeability test; format: in vitro ADME; conditions: human, pH 7.4, Caco-2, 10 μM; for Papp A→B at 120 min, 10 μM: A to B; for Papp B→A at 120 min, 10 μM: B to A
Procedure: Caco-2 cells (ATCC, Cat. No. HTB-37) were inoculated to a 96-well plate (Corning HTS Transwell, Cat. No. 3391) at 1.25×10^5/cm2, and the culture medium (DMEM+10% FBS+1% Penicillin-Streptomycin Liquid (100×)+1% NEAA) was replaced every 3 to 4 days. The plate was placed in an incubator at 37° C. with 5% CO2 until a confluent cell monolayer was formed after 21 to 28 days. Before the transport experiment, the culture medium was removed from the cell culture plate, and the plate was washed twice with pre-warmed HBSS buffer (10 mM HEPES, pH 7.4), and 100 μL of HBSS buffer was added to each well. After incubation at 37° C. for 30 minutes, the TEER value was measured using a cell resistance meter (Millicell-ERS2) to confirm the integrity and density of the monolayer cells. The HBSS buffer was discarded, the upper plate containing the cell monolayer membrane was transferred to the corresponding receiving plate, 10 mM test compound stock solution was diluted to a concentration of 10 μM with HBSS transport buffer containing 0.5% BSA, and it was added to the apical side (A side) and basolateral side (B side), respectively. Incubation was carried out for 120 min at 37° C., 5% CO2, and 95% relative humidity, and the permeation of the test compound from A side to B side or from B side to A side and the efflux rate of the compound were determined. The test compound and the reference compound were quantified by LC-MS/MS analysis based on the peak area ratio of analyte/internal standard. The apparent permeability coefficient Papp (cm/s) was calculated using the following formula:
[formula] • wherein, dCr/dt represented the functional relation between cumulative concentration of compound in receptor compartment and time; V represented the volume of solution in receptor compartment (0.1 mL at apical side, and 0.25 mL at basolateral side); A represented the transport surface area, i.e., the monolayer cell area was 0.0804 cm^2; CO represented the initial concentration of compound in donor compartment.
The efflux ratio was calculated using the following formula: […]
The percent recovery was calculated using the following formula:
[formula] [formula] • wherein, Vd represented the volume of donor compartment (0.1 mL on the apical side and 0.25 mL on the basolateral side); C and Cr represented the final concentrations of the transported compound in the donor and receptor compartment, respectively; Cc represented the compound concentration in cell lysate; Vc represented the volume of insert well (which was 0.1 mL in this experiment).

[2] = Liver microsome stability test, mouse (MLM); format: in vitro ADME; conditions: mouse liver microsomes, NADPH; read-out: T1/2 (min) Mouse
Procedure: (§1) The 10 mM test compound/ketanserin (Energy Chemical, Cat. No. E020711) stock solution was diluted with acetonitrile to 0.5 mM compound/reference compound. The frozen 100 mM NADPH (MCE, Cat. No. HYF003/CS-4998) was diluted with phosphate buffer solution to a concentration of 6 mM; 20 mg/mL HLM (BioIVT, Cat. No. X008067) or MLM (BioIVT, Cat. No. M00501) was diluted with phosphate buffer solution to a concentration of 0.75 mg/ml, and added to a 96-round well plate, respectively, and shaken evenly on an oscillator at 600 rpm. The above oscillated samples were pipetted 3 times with an electric pipettor and dispensed into a new 96-well plate (containing NADPH group (n=2), NADPH-free group was added at 0 and 45 min (n=1)), and there were a total of 5 groups of 0, 5, 15, 30 and 45 min, respectively. After pre-incubation of the 5 groups of samples at 37° C. for 5 min, glacial acetonitrile was quickly added to the 0 min group for precipitation, and after rapid vortexing, K-Buffer or NADPH was added with an electric pipettor. The remaining groups were sequentially added with 6 mM NADPH to start the reaction in the order of 45, 30, 15 and 5 min samples, and K-Buffer solution was added to the NADPH-free group. After mixing at 1000 rpm in an oscillating mixer for 10 s, they were continuously incubated at 37° C. for the corresponding time. The reaction was terminated by quickly adding glacial acetonitrile internal standard using an electric pipettor; after vortexing at 900 rpm for 10 seconds, heat sealing was performed, oscillation was performed on an oscillator for 10 minutes, centrifugation was performed at 4000 rpm for 50 minutes, the supernatant was collected and diluted with pure water, and the test compound and the reference compound were quantified by LC-MS/MS analysis.

[3] = Pharmacokinetic test in mice; format: in vivo; conditions: male, ICR, mouse, plasma; for AUC / Cmax: 25 mg/kg, po 25 mpk; for clearance: 2.5 mg/kg, iv 2.5 mpk
Procedure: ICR male mice (15 to 35 g, 5 to 10 weeks old, Shanghai Xipuer-Bikai Experimental Animal Co., Ltd.) were selected as test animals in this study. The LC-MS/MS method was used to quantitatively determine drug concentrations in the plasma of mice at different time points after intravenous injection or oral gavage administration of the test compound to evaluate the pharmacokinetic characteristics of the compound in mice. The clear solution of the test compound was injected into ICR mice via the tail vein (without fasting, solvent: 40% hydroxypropyl-β-cyclodextrin) and administered to ICR mice by oral gavage (fasting for 10 to 14 hours, free drinking water, solvent: 0.2% hydroxypropyl cellulose, 0.5% Tween 80). For intravenous administration, blood was collected from the submandibular venous plexus at 0.033, 0.083, 0.25, 0.5, 1, 2, 4, 8, and 24 hours after administration, placed in an anticoagulant tube with EDTA-K2 (Jiangsu Kangjian Medical Supplies Co., Ltd.), mixed, and centrifuged at 2-8° C., 6800 g for 6 minutes to obtain plasma; for oral gavage administration, blood was collected from the submandibular venous plexus at 0.083, 0.25, 0.5, 1, 2, 4, 6, 8, and 24 hours after administration, placed in an anticoagulant tube with EDTA-K2 (Jiangsu Kangjian Medical Supplies Co., Ltd.), mixed, and centrifuged at 2-8° C., 6800 g for 6 minutes to obtain plasma. The blood drug concentration was determined by LC-MS/MS, and the relevant pharmacokinetic parameters were calculated by the non-compartmental linear logarithmic trapezoidal method using Phoenix WinNonlin™ Version 7.0 (Pharsight, USA) pharmacokinetic software.

[4] = Liver microsome stability test, human (HLM); format: in vitro ADME; conditions: human liver microsomes, NADPH; read-out: T1/2 (min) Human
Procedure: as §1

Structure (SMILES)	efflux ratio at 120 min, 10 μM [1]	Papp A→B at 120 min, 10 μM [1] [×10⁻⁶ cm/s]	Papp B→A at 120 min, 10 μM [1] [×10⁻⁶ cm/s]	half-life [2] [min]	AUC [3] [ng·h/mL]	Cmax [3] [ng/mL]	clearance [3] [mL/min/kg]	half-life [4] [min]
CNC(=O)c1ccc(NCC#Cc2nc3c(NC4CCC(N5CC6(COC6)C5)CC4F)cccn3c2CC(F)(F)F)c(OC)c1 (single isomer, unassigned) [Compound 35-6i]	4.31	2.66	11.4	19.2	19700	6860	20	
[2H]C([2H])([2H])NC(=O)c1ccc(NCC#Cc2cc3c(NC4CCC(N5CC6(COC6)C5)CC4F)cccn3c2CC(F)(F)F)c(OC([2H])([2H])[2H])c1 (single isomer, unassigned) [Compound 74d]				22	17400	4160	17	55.8
COc1cc(C(=O)NC2CC2)ccc1NCC#Cc1nc2c(NC3CC[C@@H](N4CC5(COC5)C4)C[C@@H]3F)cccn2c1CC(F)(F)F (stereo partly drawn) [Compound 54]	2.24	2.3	5.16	78.4				32
CNC(=O)c1ccc(NCC#Cc2nc3c(N[C@@H]4CCN(C)C[C@@H]4F)cccn3c2CC(F)(F)F)c(OC)c1 [Compound 5]	8.27	2.8	23.1		4070	1140	54	
[2H]C([2H])([2H])NC(=O)c1ccc(NCC#Cc2nc3c(NC4CC[C@@H](N5CC6(COC6)C5)C[C@@H]4F)cccn3c2CC(F)(F)F)c(OC([2H])([2H])[2H])c1 (stereo partly drawn) [Compound 64]	1.22	4.92	5.99	55				44
CNC(=O)c1ccc(NCC#Cc2nc3c(NC4CC[C@@H](N5CC6(COC6)C5)C[C@@H]4F)cccn3c2CC(F)(F)F)c(OCF)c1 (stereo partly drawn) [Compound 58]	3.09	2.41	7.46	33				37.5
